Laboratory results published in patent US12559461B2, “Antibiotic adjuvant compounds” (UNIVERSITY OF NOTRE DAME DU LAC, priority 2020, dated 2026).
Where a name gives a salt, the structure may show the parent alone. Read-outs that look alike come from different tables or passages of the source.

How the values were obtained:
AB5075 [1] = assay: Broth microdilution MIC of compound alone (standalone toxicity); type: cell-based, Acinetobacter baumannii
Experimental: (§1) Bacterial Strains and Antimicrobial Agents. Acinetobacter baumannii clinical isolate 5075 was obtained from Dr. Colin Manoil at the University of Washington. Colonies were grown on lysogeny broth (LB) agar. Cation-adjusted Mueller-Hinton Broth (CAMHB) (catalog number 212322) were purchased from BD Diagnostics. LB broth was purchased from Fisher Scientific (catalog number BP9722-2). […] Colistin sulfate salt (catalog number C4461) was purchased from Sigma Aldrich. All assays were completed in duplicate and repeated at least two separate times. All compounds were dissolved as their HCl salts in molecular biology grade DMSO as 10 or 100 mM stock solutions and stored at −20° C. Colistin was dissolved in sterile water while clarithromycin was dissolved in molecular biology grade DMSO.
Broth microdilution method for MIC determination. Day cultures (6 h) of each bacterial strain in cation adjusted Mueller Hinton II broth (CAMHB, Fisher Scientific U.S.) were subcultured to 5×10^5 CFU/mL in CAMHB. Aliquots (1 mL) were placed in culture tubes and compound was added from 10 mM stock samples in DMSO, such that compound concentration equaled highest concentration tested (200 μM). Samples were then aliquoted (200 μL) into the first wells of a 96-well plate, with all remaining wells being filled with 100 μL of initial bacterial subculture. Row one wells were mixed five times, before 100 μL was transferred to row two. Row two was then mixed five times, and 100 μL was transferred to row three. This process was repeated until the final row had been mixed; this served to serially dilute the compound. Plates were then covered with GLAD Press n'Seal and incubated under stationary conditions at 37° C. for 16 h. MIC values were then recorded as the lowest concentration at which no bacterial growth was observed.

AB5075 [2] = assay: Broth microdilution clarithromycin (CLR) potentiation and dose-response of adjuvant; type: cell-based, Acinetobacter baumannii
Experimental: as §1
Broth microdilution method for antibiotic potentiation. Day cultures (6 h) of bacteria in CAMHB were subcultured to 5×10^5 CFU/mL in CAMHB. Aliquots (4 mL) were placed in culture tubes and dosed with compound from 10 mM stock samples to give the desired concentration of the compound to be tested against the particular bacterial strain; this insured non-toxic DMSO concentrations ≤0.3% in each well. 1 mL of the resulting solution was placed in a separate culture and dosed with antibiotic at the highest concentration to be tested. Bacteria treated with antibiotic alone served as the control. Row one of a 96-well plate was filled with 200 μL of the antibiotic/2-AI solution, and rows 2-12 were filled with 100 μL each of the remaining 4 mL of bacterial subculture containing adjuvant at the desired concentration, except for the control lane which contained only bacterial subculture. Row one was then mixed five times, and 100 μL was transferred to row two, which was then mixed five times before being transferred to row three. This process was repeated until all rows had been mixed, except for row twelve which would have only 2-AI to serve as a control to monitor potential toxicity. The 96-well plate was then covered in Glad Press n'Seal and incubated under stationary conditions at 37° C. for 16 h. MIC values were determined as the lowest concentration at which no bacterial growth was observed, and fold reductions were determined by comparison to antibiotic control lane.
Dose-response of Adjuvant Assay. The procedure for ‘broth microdilution method for antibiotic potentiation’ was followed using 4 mL aliquots of adjuvant at various concentrations: 0, 5, 7.5, 10, 15, 20, 25, and 30 μM.

Row | SMILES | CLR MIC (AB5075 [2]; compound tested at 30 μM) | MIC (AB5075 [1]; Acinetobacter baumannii) | MIC (AB5075 [1]) | also measured
1 | Nc1nc(-c2ccc(NC(=O)c3ccccc3)cc2)c[nH]1 [Compound 4a, N-(4-(2-amino-1H-imidazol-4-yl)phenyl)benzamide hydrochloride] |  | > 200 µM |  | 
2 | Cl.Nc1nc(-c2ccc(NC(=O)c3cccc(I)c3)cc2)c[nH]1 [Compound 4b] | 32 µg/mL |  | >200 µM | 
3 | Cl.Nc1nc(-c2ccc(NC(=O)c3cccc(Cl)c3)cc2)c[nH]1 [Compound 4d, 4-(2-Amino-3H-imidazol-4-yl)phenyl]-3-chlorobenzamide hydrochloride] |  | 200 µM |  | 
4 | Cl.Nc1nc(-c2ccc(NC(=O)c3cccc(Cl)c3)cc2)c[nH]1 [Compound 4d] |  |  |  | CLR MIC (AB5075 [2]; compound tested at 10 μM): 16 µg/mL; CLR MIC (AB5075 [2]; compound tested at 20 μM): 4 µg/mL
5 | Nc1nc(-c2ccc(NC(=O)c3ccc(Br)cc3)cc2)c[nH]1 [Compound 4h, N-(4-(2-amino-1H-imidazol-4-yl)phenyl)-4-bromobenzamide hydrochloride] |  | > 200 µM |  | 
6 | Cl.Nc1nc(-c2ccc(NC(=O)c3ccc(Cl)cc3)cc2)c[nH]1 [Compound 4i, 4-(2-Amino-3H-imidazol-4-yl)phenyl]-4-chlorobenzamide hydrochloride] |  | > 200 µM |  | 
7 | Cl.Nc1nc(-c2ccc(NC(=O)c3ccc(Cl)cc3)cc2)c[nH]1 [Compound 4i] |  |  |  | CLR MIC (AB5075 [2]; compound tested at 10 μM): 16 µg/mL; CLR MIC (AB5075 [2]; compound tested at 20 μM): 4 µg/mL
8 | Cl.Nc1nc(-c2ccc(NC(=O)c3cc(C(F)(F)F)cc(C(F)(F)F)c3)cc2)c[nH]1 [Compound 4l, 4-(2-Amino-3H-imidazol-4-yl)phenyl]-3,5-(bistrifluoromethyl)benzamide hydrochloride] |  | 50 µM |  | 
9 | Cl.Nc1nc(-c2ccc(NC(=O)c3cc(C(F)(F)F)cc(C(F)(F)F)c3)cc2)c[nH]1 [Compound 4l] |  |  |  | CLR MIC (AB5075 [2]; compound tested at 15 μM): 8 µg/mL

Further lines, with some results ahead:

Row | CLR MIC (AB5075 [2]; compound tested at 30 μM) | SMILES | MIC (AB5075 [1]; Acinetobacter baumannii) | MIC (AB5075 [1]) | also measured
10 | 32 µg/mL | Cl.Nc1nc(-c2ccc(NC(=O)c3cccc(Br)c3)cc2)c[nH]1 [Compound 4c] |  | >200 µM | 
11 | 16 µg/mL | Cl.Nc1nc(-c2ccc(NC(=O)c3cccc(F)c3)cc2)c[nH]1 [Compound 4e] |  | >200 µM | 
12 | 32 µg/mL | Cl.Nc1nc(-c2ccc(NC(=O)c3ccc(C(F)(F)F)cc3)cc2)c[nH]1 [Compound 4f] |  | >200 µM | 
13 | 16 µg/mL | Cl.Nc1nc(-c2ccc(NC(=O)c3ccc(I)cc3)cc2)c[nH]1 [Compound 4g] |  | >200 µM | 
14 | 8 µg/mL | Cl.Nc1nc(-c2ccc(NC(=O)c3ccc(F)cc3)cc2)c[nH]1 [Compound 4j, N-(4-(2-amino-1H-imidazol-4-yl)phenyl)-4-fluorobenzamide hydrochloride] | > 200 µM |  | 
15 | 2 µg/mL | Cc1cc(C)cc(C(=O)Nc2ccc(-c3c[nH]c(N)n3)cc2)c1.Cl [Compound 4m, N-(4-(2-amino-1H-imidazol-4-yl)phenyl)-3,5-dimethylbenzamide hydrochloride] | > 200 µM |  | 
